Assay: xn = mol fraction of the nth substance listed

Cc1cnccn1 [2-methylpyrazine] + O=C=O
Fluid (supercritical or subcritical phases), Linear displacement technique
Details | mass density [kg/m3]
294.85 K, 5860 kPa, x1 = 0.033 | 869
294.85 K, 6830 kPa, x1 = 0.017 | 749
294.85 K, 7760 kPa, x1 = 0.033 | 904
294.85 K, 8900 kPa, x1 = 0.017 | 777
294.85 K, 13000 kPa, x1 = 0.017 | 821
294.85 K, 13690 kPa, x1 = 0.033 | 969
294.95 K, 2450 kPa, x1 = 0.857 | 935
294.95 K, 3790 kPa, x1 = 0.857 | 942
294.95 K, 6860 kPa, x1 = 0.857 | 947
294.95 K, 11520 kPa, x1 = 0.857 | 950
295.05 K, 3900 kPa, x1 = 0.624 | 948
295.05 K, 7000 kPa, x1 = 0.624 | 952
295.05 K, 9660 kPa, x1 = 0.624 | 956
295.05 K, 14760 kPa, x1 = 0.624 | 965
295.35 K, 5310 kPa, x1 = 0.156 | 908
295.35 K, 7620 kPa, x1 = 0.156 | 910
295.35 K, 9620 kPa, x1 = 0.156 | 911
295.45 K, 5450 kPa, x1 = 0.264 | 901
295.45 K, 7900 kPa, x1 = 0.264 | 911
295.45 K, 12450 kPa, x1 = 0.264 | 926
295.45 K, 16590 kPa, x1 = 0.264 | 934
295.55 K, 6790 kPa, x1 = 0.122 | 998
295.55 K, 8790 kPa, x1 = 0.122 | 1010
295.55 K, 10590 kPa, x1 = 0.122 | 1019
295.55 K, 14410 kPa, x1 = 0.122 | 1036
295.85 K, 7140 kPa, x1 = 0.081 | 779
295.85 K, 9760 kPa, x1 = 0.081 | 781
295.85 K, 13170 kPa, x1 = 0.081 | 781
296.15 K, 7590 kPa, x1 = 0.339 | 964
296.15 K, 10550 kPa, x1 = 0.339 | 969
296.15 K, 16100 kPa, x1 = 0.339 | 976
296.35 K, 6310 kPa, x1 = 0.023 | 607
296.35 K, 6660 kPa, x1 = 0.023 | 614
296.35 K, 8930 kPa, x1 = 0.023 | 642
297.25 K, 5790 kPa, x1 = 0.062 | 854
297.25 K, 7550 kPa, x1 = 0.062 | 873
297.25 K, 9550 kPa, x1 = 0.062 | 894
297.25 K, 12830 kPa, x1 = 0.062 | 914
298.85 K, 6860 kPa, x1 = 0.039 | 804
298.85 K, 8520 kPa, x1 = 0.039 | 831
298.85 K, 11690 kPa, x1 = 0.039 | 873
301.55 K, 7930 kPa, x1 = 0.023 | 578
301.55 K, 10070 kPa, x1 = 0.023 | 604
301.55 K, 11520 kPa, x1 = 0.023 | 620
304.15 K, 6790 kPa, x1 = 0.156 | 795
304.15 K, 8030 kPa, x1 = 0.156 | 905
304.15 K, 10210 kPa, x1 = 0.156 | 906
304.15 K, 12210 kPa, x1 = 0.156 | 911
304.45 K, 7140 kPa, x1 = 0.091 | 913
304.45 K, 7830 kPa, x1 = 0.122 | 970
304.45 K, 8660 kPa, x1 = 0.091 | 927
304.45 K, 10170 kPa, x1 = 0.091 | 940
304.45 K, 10660 kPa, x1 = 0.122 | 989
304.45 K, 13690 kPa, x1 = 0.122 | 1006
304.55 K, 5690 kPa, x1 = 0.264 | 882
304.55 K, 6660 kPa, x1 = 0.264 | 885
304.55 K, 10380 kPa, x1 = 0.264 | 896
304.55 K, 13620 kPa, x1 = 0.264 | 907
305.05 K, 3620 kPa, x1 = 0.624 | 922
305.05 K, 5000 kPa, x1 = 0.624 | 926
305.05 K, 7480 kPa, x1 = 0.624 | 931
305.05 K, 10860 kPa, x1 = 0.624 | 937

Liquid, linear displacement
Details | mass density [kg/m3]
294.85 K, x1 = 0.017 | 721
294.85 K, x1 = 0.033 | 864
294.95 K, x1 = 0.857 | 930
295.05 K, x1 = 0.624 | 944
295.35 K, x1 = 0.156 | 906
295.45 K, x1 = 0.264 | 883
295.55 K, x1 = 0.122 | 947
295.85 K, x1 = 0.081 | 779
296.15 K, x1 = 0.339 | 928
296.35 K, x1 = 0.023 | 599
297.25 K, x1 = 0.062 | 845
298.85 K, x1 = 0.039 | 787
301.55 K, x1 = 0.023 | 549
304.15 K, x1 = 0.156 | 901
304.45 K, x1 = 0.091 | 901
304.45 K, x1 = 0.122 | 954
304.55 K, x1 = 0.264 | 881

Source: the NIST ThermoML archive (doi:10.1021/je0601457)
